# Results as given in ChEMBL document CHEMBL4420065, “Synaptojanin-2 inhibitors for use in the treatment of cancer” (2017).
# Activity calls are given as the source filed them. No cut-off for these calls is given here.
# System: MDA-MB-231
# Details: Homo sapiens, 10 uM
# Description: Inhibition of cell invasion of human MDA-MB-231 cells at 10 uM incubated for 96 hrs by Matrigel based assay
row,Compound,inhibition
1,O=C1C[C@@H](c2ccc(O)c(O)c2)Oc2cc(O[C@@H]3O[C@H](CO)[C@@H](O)[C@H](O)[C@H]3O)cc(O)c21,Active
2,C/C(=C\CO[C@@H]1O[C@H](CO)[C@@H](O)[C@H](O)[C@H]1O)C(O)CCC(C)(C)O (stereo not given in full),Active
3,COc1cc(C2c3c(cc(OC)c(O)c3OC)CC(CO)C2COC2OCC(O)C(O)C2O)cc(OC)c1O (stereo not given),Active
4,Cc1c(O)cc2c(c1O)C(=O)[C@H](O)[C@@H](c1ccc(O)c(O)c1)O2,Active
5,COc1cc(O)cc(O)c1C(=O)c1ccc(O)c(O)c1,Active
